# Source: patent publication US7132449B2, “Inhibitors of cruzipain and other cysteine proteases” (Amura Therapeutics Limited, priority 2001, dated 2006)
# Columns and labels:
# Cruzipain = Cruzipain (Trypanosoma cruzi, UniProt P25779); assay: Trypanosoma cruzi cruzipain peptidase activity assay (Ki); assay type: biochemical; conditions: wild-type cruzipain from Trypanosoma cruzi Dm28 epimastigotes, pH 6.75, 25±1° C.
# Procedure: (§1) Assay protocols were based on literature precedent (Table 1; Barrett, A. J., Rawlings, N. D. and Woessner, J. F., 1998, Handbook of Proteolytic Enzymes, Academic Press, London and references therein) and modified as required to suit local assay protocols. Enzyme was added as required to initiate the reaction and the activity, as judged by the change in fluorescence upon conversion of substrate to product, was monitored over time. All assays were carried out at 25±1° C.
# Wild-type cruzipain, derived from Trypanosoma cruzi Dm28 epimastigotes, was obtained from Dr. Julio Scharfstein (Instituto de Biofisica Carlos Chagas Filho, Universidade Federal do Rio de Janeiro, R10 de Janeiro, Brazil). Activity assays were carried out in 100 mM sodium phosphate, pH 6.75 containing 1 mM EDTA and 10 mM L-cysteine using 2.5 nM enzyme. Ac-Phe-Arg-AMC (KM^app≈12 μM) and D-Val-Leu-Lys-AMC (KM^app≈4 μM) were used as the substrates. Routinely, Ac-FR-AMC was used at a concentration equivalent to KM^app and D-Val-Leu-Lys-AMC was used at a concentration of 25 μM. The rate of conversion of substrate to product was derived from the slope of the increase in fluorescence monitored continuously over time.
# (§2) The apparent inhibition constant (Ki) for each compound was determined on the basis that inhibition was reversible and occurred by a pure-competitive mechanism. The Ki values were calculated, from the dependence of enzyme activity as a function of inhibitor concentration, by direct regression analysis (Prism v 3.02) using Equation 2 (Cornish-Bowden, A., 1995.).
# (§3) In situations where the apparent dissociation constant (Ki^app) approached the enzyme concentrations, the Ki^app values were calculated using a quadratic solution in the form described by Equation 3 (Morrison, J. F. Trends Biochem. Sci., 7, 102–105, 1982; Morrison, J. F. Biochim. Biophys. Acta, 185, 269–286, 1969; Stone, S. R. and Hofsteenge, J. Biochemistry, 25, 4622–4628, 1986).
# Bovine Cathepsin S = target: T1, Bovine Cathepsin S (Bos taurus, UniProt P25326); assay: Cathepsin peptidase activity assay, bovine cathepsin S (Ki); assay type: biochemical; conditions: pH 6.5, 25±1° C.
# T1 construct: purchased CN Biosciences
# T1 sequence (P25326 115-331): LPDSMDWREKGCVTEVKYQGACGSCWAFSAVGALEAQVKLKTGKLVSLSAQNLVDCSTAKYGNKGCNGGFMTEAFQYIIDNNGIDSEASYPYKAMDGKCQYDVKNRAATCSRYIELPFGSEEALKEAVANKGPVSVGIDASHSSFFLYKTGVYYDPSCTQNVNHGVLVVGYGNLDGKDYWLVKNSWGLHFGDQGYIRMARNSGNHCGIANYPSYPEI
# Procedure: as §1
# (§4) Bovine cathepsin S, human cathepsin L, human cathepsin H and human cathepsin B were obtained from CN Biosciences. Recombinant human cathepsin S, human cathepsin K and human cathepsin X were obtained from Dr. Boris Turk (Josef Stefan Institute, Ljubljana, Slovenia). Unless otherwise stated, all peptidase activity assays were carried out in 10 mM bis-tris-propane (BTP), pH 6.5 containing 1 mM EDTA, 5 mM 2-mercaptoethanol and 1 mM CaCl2. Human cathepsin H activity assays were carried out in 10 mM BTP pH 6.5, 142 mM […], 1 mM CaCl2, 1 mM EDTA, 1 mM DTT, 0.035 mM Zwittergent 3–16. Human cathepsin K assays were carried out in 100 mM sodium acetate; pH 5.5 containing 20 mM L-cysteine and 1 mM EDTA (Bossard, M. J., et. al., J. Biol. Chem., […], 12517–12524, 1996). […] The final enzyme concentrations used in the assays were 0.5 nM bovine cathepsin S, 1 nM cathepsin L, 0.1 nM cathepsin B, 0.25 nM Cathepsin K; 1 nM cathepsin X and 10 nM cathepsin H. For the inhibition assays, the substrates used for cathepsin S, cathepsin L, cathepsin B, cathepsin K and cathepsin H were boc-Val-Leu-Lys-AMC (KM^app≈30 μM, Ac-Phe-Arg-AMC (KMaPP 20 EM), Z-Phe-Arg-AMC (KM^app≈40 μM), Z-Leu-Arg-AMC (KM^app≈2 μM); Bz-Phe-Val-Arg-AMC (KM^app≈150 μM) respectively. In each case the substrate concentration used in each assay was equivalent to the KM^app. The rate of conversion of substrate to product was derived from the slope of the increase in fluorescence monitored continuously over time.
# as §2, §3
# Human Cathepsin L = target: T2, Human Cathepsin L (Homo sapiens, UniProt P07711); assay: Cathepsin peptidase activity assay, human cathepsin L (Ki); assay type: biochemical; conditions: pH 6.5, 25±1° C.
# T2 construct: purchased CN Biosciences
# T2 sequence (P07711 114-333): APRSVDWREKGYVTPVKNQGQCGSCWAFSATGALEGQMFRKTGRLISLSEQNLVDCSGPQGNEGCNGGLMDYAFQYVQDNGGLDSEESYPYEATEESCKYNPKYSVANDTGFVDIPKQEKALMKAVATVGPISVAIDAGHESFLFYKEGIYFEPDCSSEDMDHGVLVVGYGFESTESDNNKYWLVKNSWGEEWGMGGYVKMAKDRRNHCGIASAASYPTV
# Procedure: as §1, §4, §2, §3
# Human Cathepsin K = target: T3, Human Cathepsin K (Homo sapiens, UniProt P43235); assay: Cathepsin peptidase activity assay, human cathepsin K (Ki); assay type: biochemical; conditions: pH 5.5, 25±1° C.
# T3 construct: Dr. Boris Turk (Josef Stefan Institute, Ljubljana, Slovenia)
# T3 sequence (P43235 115-329): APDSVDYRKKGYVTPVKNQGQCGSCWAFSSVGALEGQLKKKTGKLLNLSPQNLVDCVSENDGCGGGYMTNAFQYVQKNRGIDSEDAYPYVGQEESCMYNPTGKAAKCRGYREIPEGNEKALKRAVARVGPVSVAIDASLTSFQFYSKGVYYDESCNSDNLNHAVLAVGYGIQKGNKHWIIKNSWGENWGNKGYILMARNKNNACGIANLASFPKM
# Procedure: as §1, §4, §2, §3
# [1] = test system: Trypanosoma cruzi infection; conditions: during the acute phase of infection; cited from earlier work
# [2] = test system: Trypanosoma cruzi-infected mammalian cell cultures; conditions: added to Trypanosoma cruzi-infected mammalian cell cultures; cited from earlier work
# Sequence of Cruzipain (P25779 whole entry): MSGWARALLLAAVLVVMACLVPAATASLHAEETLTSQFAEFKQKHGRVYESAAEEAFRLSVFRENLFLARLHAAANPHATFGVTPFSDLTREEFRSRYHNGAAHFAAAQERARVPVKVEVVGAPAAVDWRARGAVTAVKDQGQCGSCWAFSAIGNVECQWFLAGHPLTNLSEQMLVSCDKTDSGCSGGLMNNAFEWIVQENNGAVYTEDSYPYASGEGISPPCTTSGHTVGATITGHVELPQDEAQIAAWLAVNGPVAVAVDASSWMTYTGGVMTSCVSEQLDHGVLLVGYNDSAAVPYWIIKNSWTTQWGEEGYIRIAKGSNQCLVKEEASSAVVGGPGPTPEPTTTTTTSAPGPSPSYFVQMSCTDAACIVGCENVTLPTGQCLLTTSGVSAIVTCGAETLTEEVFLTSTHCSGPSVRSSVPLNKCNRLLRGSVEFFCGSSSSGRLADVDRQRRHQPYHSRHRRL
SMILES,Ki (Cruzipain),Ki (Bovine Cathepsin S),Ki (Human Cathepsin L),Ki (Human Cathepsin K),cure [1],effect on replication and differentiation of the parasite [2]
"CC(C)CC(C(=O)N[C@H]1C(=O)CO[C@@H]1C)c1cccc(-c2ccccc2)c1 (mixture of isomers) [Example 46, (2R, 3R) 2-Biphenyl-3-yl-4-methyl-pentanoic acid (2-methyl-4-oxo-tetrahydrofuran-3-yl)-amide]",> 10 µM,> 20 µM,> 5 µM,< 1 µM,–,–
O=C(Cn1ccnc1[N+](=O)[O-])NCc1ccccc1 [benznidazole],–,–,–,–,~60%,–
"CC(C)C[C@H](CC(=O)n1ccc(-c2ccccc2)c1)C(=O)N[C@@H]1C(=O)CO[C@@H]1C [Example 22, (2R, 3S) 4-Methyl-2-[2-oxo-2-(3-phenyl-pyrrol-1-yl)-ethyl]-pentanoic acid (2-methyl-4-oxo-tetrahydrofuran-3-yl)-amide]",< 5 µM,> 50 µM,> 100 µM,> 5 µM,–,–
CC(NC(=O)C(Cc1ccccc1)NC(=O)OCc1ccccc1)C(=O)CF (stereo not drawn) [Z-Phe-Ala-FMK],–,–,–,–,–,blocked replication and differentiation of the parasite
"C[C@@H]1OCC(=O)[C@H]1NC(=O)[C@H](CC1CCCCC1)SCc1ccco1 [Example 4, (2S, 3S) 3-Cyclohexyl-2-(furan-2-ylmethylsulfanyl)-N-(2-methyl-4-oxo-tetrahydrofuran-3-yl)-propionamide]",> 100 µM,< 10 µM,> 100 µM,> 100 µM,–,–
C[C@H]1OCC(=O)[C@H]1NC(=O)[C@H](Cc1ccccc1)OCc1cccc2ccccc12 (racemic) [Example 49],> 100 µM,> 100 µM,< 10 µM,> 100 µM,–,–
